Key:
cultured osteoblasts = test: Collagen synthesis (4-hydroxyproline content); assay type: cell-based, rat; details: only at a higher concentration of 10 μM
Description: von Kossa staining: Osteoblasts were cultured in DMEM containing 50 μg/ml vitamin C and 10 mM β-glycerophosphate for 2 weeks and the medium was changed every 3 days. To examine nodule formation, the cells were fixed in 4% paraformaldehyde for 10 min, rinsed with water, stained with 1% silver nitrate, placed under a UV lamp for 30 min and rinsed with water before treating with 5% sodium thiosulfate for 2 min. The cells were then washed twice with water and counterstained with 1% Safranin-O to visualize the matrix. The number of nodules formed per well was counted under a light microscope. Collagen synthesis was determined by measuring the 4-hydroxyproline content in cultured osteoblasts. Cells cultured in DMEM containing 50 μg/ml vitamin C and 10 mM β-glycerophosphate for 2 weeks were hydrolyzed in 6N HCl for 16 h at 116° C. After lyophilizing and reconstituting a lysate in distilled water, the amount of 4-hydroxyproline was determined by spectrophotometry at 550 nm as described by Berg (1982) Meth Enzymol. 82: 372–398.

α5 and β1 integrins = test: Flow cytometry of surface expression of integrins; assay type: cell-based, rat; details: treatment for 24 hr
Description: (§1) Fibronectin (Fn) plays an important role in the regulation of adhesion, migration, and maturation of osteoblasts. Fn fibrillogenesis is involved in the process of bone mineralization. The effect of Indazole 1 on Fn fibrillogenesis in cultured osteoblasts was examined. The immobilized form of fibrillogenesis from the endogenously released Fn by monolayer Day 3˜5 osteoblasts was studied using immunocytochemistry. Incubation of Day-3 osteoblasts with Indazole 1 (10 μM) for 24 hr increased extracellular Fn assembly. Flow cytometry was used to analyze the effect of Indazole 1 on the surface expression of α5 and β1 integrins. […] On the other hand, the collagen synthesis was increased by Indazole 1 only at a higher concentration of 10 μM.

[1] = system: ovariectomized adult female rats; test: Biomechanical three-point bending test of femurs of OVX rats; assay type: in vivo, rat
Description: Ovariectomy and cut of sciatic nerve: Ovariectomy and cut of sciatic nerve were performed in adult female and male rats (3 month-old), respectively. After surgery, the rats were injected with Indazole 1 (i.p., 1 mg/Kg) or a vehicle daily for 4 weeks. On the day following the last injection, the rats were sacrificed and their tibia and femur were removed. Biomechanical three-point bending test: Mechanical properties of bone tissues were measured via a three-point bending test using a MTS-858 testing machine (MTS System Inc., Minneapolis, Minn.). The span of two support points was 20 millimeters and the deformation rate was 1 mm/min. Load/deformation curves were acquired by Team 490 software (version 4.10, Nicolet Instrument Technologies Inc., Madison, Wis.). Sigma Plot 6.0 software (SPSS Inc., Chicago, Ill.) was used to calculate extrinsic material properties of bone samples, including maximal load, ultimate load, energy to maximal load, energy to ultimate load, and linear stiffness. Energy to maximal load and energy to ultimate load were calculated as the areas under the load/deforming curves. Stiffness was calculated as the slope of the linear portion of the load/deformation curves. The cross-sectional moment of inertia was calculated under the assumption that the cross-sections were elliptically shaped (Turner et al., The effects of fluoridated water on bone strength. Orthop Res (1992) 10: 581–587). Maximal stress, ultimate stress, and elastic modulus (Young's modulus) were calculated using the methods described in Turner et al., Basic biomechanical measurements of bone: a tutorial, Bone (1993) 14:595–608.

Day-3 osteoblasts = test: Fibronectin fibrillogenesis by immunocytochemistry; assay type: cell-based, rat; details: 10 μM for 24 hr
Description: as §1

osteoclast precursors = test: Osteoclastogenesis (TRAP-positive multinucleated cells); assay type: cell-based, rat; details: M-CSF 20 ng/ml and sRANKL 50 ng/ml, 8 days
Description: Osteoclastogenesis: Bone marrow cells were prepared by removing femurs from 6–8-week-old SD rats and flushing the bone marrow cavity with DMEM which was supplemented with 20 mM HEPES and 10% heat-inactivated FCS, 2 mM-glutamine, penicillin (100 U/ml) and streptomycin (100 μg/ml). After 24 hr, the non-adherent cells (hematopoietic cells) were collected and used as osteoclast precursors. The cells were seeded at 1×10^6 cells/well (0.5 ml) in 24-well plates in the presence of human recombinant soluble RANKL (50 ng/ml, Peprotech EC Ltd., London, United Kingdom) and murine M-CSF (20 ng/ml, Genzyme, Cambridge, Mass.). The culture medium was changed every 3 days. After 8˜10 days, osteoclast formation was confirmed by an assay of tartrate-resistant acid phosphatase (TRAP) (Kotake et al., 1999). In brief, the adherent cells were fixed with 10% formaldehyde in phosphate-buffered saline for 3 min. After treatment with ethanol/acetone (50:50 v/v) for 1 min, the cell surface was air dried and incubated for 10 min at room temperature in an acetate buffer (0.1 M sodium acetate, pH 5.0) containing 0.01% naphthol AS-MX phosphate (Sigma) and 0.03% fast red violet LB salt (Sigmna) in the presence of 50 mM sodium tartrate. Osteoclast-like TRAP-positive cells in each well were scored by counting the number of TRAP-positive and multinucleated cells containing more than three nuclei.

Primary osteoblast cells = test: Assay of alkaline phosphatase activity in cultured osteoblasts; assay type: cell-based, rat
Description: Primary osteoblast cultures: Primary osteoblast cells were prepared from calvaria of 18-day-old fetal Sprague-Dawley (SD) rats according to the following method: Pregnant rats were put in anesthesia using intraperitoneal injection of trichloroacetaldehyde (200 mg/kg). The calvaria of the fetal rats were then dissected with aseptic technique. Soft tissues were removed under a dissecting microscope. The calvaria were divided into small pieces and then treated with 0.1% collagenase (Sigma Chemical, St. Louis, Mo.) solution for 10 minutes at 37° C. The cells released from the calvariae by two 20-minute sequential collagenase digestions were pooled and filtered through 70 μm nylon filters (Falcon, BD BioSciences, San Jose, Calif.). The cells were then grown on plastic cell culture dishes in 95:5 air-CO2 with Dulbecco's modified Eagle's medium (DMEM) (Gibco, Grand Island, N.Y.) which was supplemented with 20 mM HEPES and 10% heat-inactivated FCS, 2 mM-glutamine, penicillin (100 U/ml) and streptomycin (100 μg/ml) (pH adjusted to 7.6). The cell medium was changed twice a week. Osteoblasts were confirmed by morphology and expression of alkaline phosphatase (ALP). To examine the maturation of osteoblasts, cells were cultured for up to 14 days in a growth medium containing ascorbic acid (50 μg/ml) (Sigma Chemical, St. Louis, Mo.) and β-glycerophosphate (10 mM) (Sigma Chemical, St. Louis, Mo.) and the medium was changed every 3 day. Assay of alkalinephosphatase activity: Cells cultured in 6-well plates in the presence or absence of Indazole 1 were harvested in 1 ml of 0.2% Nonidet P-40 and cell suspension was disrupted by sonication. After centrifugation at 1500 g for 5 min, ALP activity in the supernatant was measured by the method of Lowry et al (1954) J Biol Chem 207:19–37.

[2] = femurs, OVX rats, i.p. 1 mg/kg daily for 4 weeks

OCc1ccc(-c2nn(Cc3ccccc3)c3ccccc23)o1 [Indazole 1, 1-benzyl-3-(5′-hydroxymethyl-2′-furyl)-indazole]
collagen synthesis (cultured osteoblasts): increased | cell surface expression of α5 and β1 integrins (α5 and β1 integrins): increased | Maximal load [1, 2]: 100.5 ± 3.0 N | Ultimate load [1, 2]: 79.8 ± 3.3 N | Ultimate stress [1, 2]: 14.6 ± 2.5 Mpa | ultimate stress and Young's modulus of femurs compared with sham-operated controls ([1]; treated OVX rats): only slightly lower | extracellular Fn assembly (Day-3 osteoblasts): increased | differentiation of osteoclast (osteoclast precursors): inhibited the differentiation of osteoclast in a concentration-dependent manner | concentration dependence of the increase of ALP activity (Primary osteoblast cells): concentration-dependent | ALP activity (ALP staining) (Primary osteoblast cells; 10 μM for 2 weeks): significantly increased
